From patent publication US9078907B2, “Immunoregulator compounds” (Universita Degli Studi Di Roma “Tor Vergata”, priority 2001, dated 2015)

Legend:
[1] = tested on: Cathepsin D; experiment: Western blot of Cathepsin D in macrophage phagosomal fractions after latex beads internalisation; assay type: cell-based, human; conditions: 5 μM S1P, 24 hours after latex beads internalisation
Procedure: In order to analyse the expression of an intralysosomal protein within beads containing phagolysosomes the macrophage phagosomal fraction was separated. Particularly, cells were incubated with sterile latex beads ([…]) (Sigma), 1: 200 diluted, in culture medium for 1 hour in the presence of 5% CO2 and then treated with 5 μM S1P.
Separation of the phagosomes was carried out by centrifugation on sucrose gradient. Cells were washed three times with PBS (twice for 10 minutes) and then again incubated for 24 hours at 37°C. Following the internalisation and 24 hour incubation period cells were washed with cold PBS and collected using a little scraper in PBS at 4° C., then centrifuged at 2000 rpm for 10 minutes at 4° C. and finally washed with homogenising buffer (250 mM sucrose, 3 mM imidazole, pH 7.4) again at 4° C. Cellular pellet was suspended in 1 ml homogenising buffer and cells were lysed with an homogenizer. Phagosomes were isolated by centrifugation on sucrose gradient. Cells, suspended in 1 ml of PBS, were added to 1 ml of 40% sucrose solution and such a suspension was stratified on 2 ml of 62% sucrose solution in ultracentrifuge tubes. Then 2 ml of 35%, 25% and 10% sucrose solutions were stratified (all the solutions were prepared in 3 mM imidazole, pH 7.4). The tubes were ultra-centrifuged using SW41 rotor at 100000 g at 4° C. […]

[2] = tested on: H37Rv MTB; experiment: Mycobacterial viability (CFU) in MTB infected monocyte derived macrophages; assay type: cell-based, Mycobacterium tuberculosis; conditions: MTB MOI 1:1, S1P 5 μM, 5 days after the infection, statistically significant
Procedure: In order to evaluate the bacterial viability, monocyte derived macrophages were infected for 3 hours with MTB at 1:1 macrophage/bacterium infection ratio and then treated with S1P (5 μM). At time 0(just after infection) and after 2 and 5 days the plates containing infected cellular cultures were centrifuged at 2000 RPM for 10 minutes and the supernatant was discarded. Then 1 ml PBS and 0.1% saponin were added to each well and the contents were incubated for 20 minute at 37° C. After incubation cellular lysates were sonicated for 20 seconds in such a way to break any possible bacterial aggregates. Lysates thus obtained were diluted in sterile saline 1:100, 1:1000, 1:10000 with addition of 0.01% Tween 80 and plated on Middlebrook 7H10 (Difco). Plates were incubated at 37° C. for about one month and colonies enumerated.
Based on the observations about the possible antimicrobial role of PLD and S1P during Mycobacterium tuberculosis infection it was investigated whether S1P macrophage exogenous stimulation and PLD activation were associated to a reduction of mycobacterial viability. To that object, monocytes were infected for three hours with H37Rv MTB at a multiplicity of infection of 1 bacillus for 1 cell. […]

[3] = tested on: Mycobacterium tuberculosis; experiment: Dose dependent effect of S1P on MTB replication in macrophages from peripheral blood monocytes; assay type: cell-based; conditions: human monocyte-derived macrophages, 4 donors, 0.5, 5 or 50 μM, fifth day after infection
Procedure: Peripheral blood mononuclear cells were isolated from human Buffy coat blood preparations by gradient centrifugation and suspended at 5×10^6/ml in complete medium [RPMI 1640 (Gibco BRL) supplemented with 10% fetal bovine serum (Gibco BRL), 5 mM L-glutamine and Gentamicine (5 μg/ml)]. Monocytes were then separated by adherence for 1 hour in polystyrene 75 cm^2 flasks (Corning, Cambridge, Mass.). After incubation, non-adherent cells were removed by three washes with warm RPMI 1640. […] Finally, adherent monocytes were collected after 15 minute incubation at 4° C. in the presence of 5 mM EDTA in PBS. Cells then were washed, incubated in complete medium for 5-7 days in 24 well plate at the concentration of 10^6 cells/ml to get monocyte-derived macrophages. […]
Sphingosine 1-phosphate (S-1P), used at the concentrations of 0.5, 5 or 50 μM inhibits intracellular replication of Mycobacterium tuberculosis in human monocyte-derived macrophages (MDM) from peripheral blood of healthy donors. Results are obtained from experiments performed on MDM from 4 different donors and are expressed as the means of the percentages of mycobacterial killing±standard error at the fifth day after infection. Percentage of mycobacterial killing is calculated by using the following formula: [1−(CFU from infected and S-1P stimulated MDM/CFU from infected unstimulated MDM)]×100.

Structure (SMILES): CCCCCCCCCCCCC/C=C/[C@@H](O)[C@@H](N)COP(=O)(O)O [S1P, D-erythro-sphingosine 1-phosphate]
- amount of intralysosomal protein (Cathepsin D) in the phagosomal fraction versus non-treated macrophages [1]: higher
- CFU number after S1P treatment [2]: reduced
- intracellular replication of Mycobacterium tuberculosis (percentage of mycobacterial killing) [3]: inhibits
